This is an account of results in US20060095979A1, “Transgenic mice containing CLCN4 chloride ion channel gene disruptions” (priority 2001, published 2006).

The experiment deals with mouse. As to the kind of experiment: Metrazol Test (tail vein infusion, seizure susceptibility). The class given is in vivo. The conditions noted are these: for Metrazol Dose Required for First Twitch: Dose at First Twitch: about 5 mg/ml infused through tail vein at about 0.375 ml/min. The protocol:
A metrazol administration test can be used to screen animals for varying susceptibilities to seizures or similar events. For example, a 5 mg/ml solution of metrazol can be infused through the tail vein of a mouse at a rate of, e.g., approximately 0.375 ml/min. The infusion will cause all mice to experience seizures, followed by death. Those mice that enter the seizure stage the soonest are believed to be more prone to seizures.
To screen for phenotypes involving changes in seizure susceptibility, the Metrazol Test was be used. About 5 mg/ml of Metrazol was infused through the tail vein of the mouse at a constant rate of about 0.375 ml/min. The infusion caused all mice to experience seizures. Those mice who entered the seizure stage the quickest were thought to be more prone to seizures in general.
The Metrazol test can also be used to screen for phenotypes related to epilepsy. Seven to ten adult wild-type and homozygote males were used. A fresh solution of about 5 mg/ml pentylenetetrazole in approximately 0.9% NaCl was prepared prior to testing. Mice were weighed and loosely held in a restrainer. After exposure to a heat lamp to dilate the tail vein, mice were continuously infused with the pentylenetetrazole solution using a syringe pump set at a constant flow rate. The following stages were recorded: first twitch (sometimes accompanied by a squeak), beginning of the tonic/clonic seizure, tonic extension and survival time. The dose required for each phase was determined and the latency to each phase was determined between genotypes. Alterations in any stage may indicate an overall imbalance in excitatory or inhibitory neurotransmitter levels.

Consider `C1CCc2nnnn2CC1` [Metrazol, pentylenetetrazole], for which the “dose of metrazol to induce the first twitch response, homozygous mutant (−/−) compared to wild-type (+/+) control mice” value (age- and gender-matched mice) was “higher dose”. For the same compound, the “Metrazol Dose Required for First Twitch: Dose at First Twitch” value (homozygous mutant (−/−) CLCN4 male mice) is 34.14 mg/kg and the “Metrazol Dose Required for First Twitch: Dose at First Twitch” value (wild-type (+/+) male mice) was 28.06 mg/kg.
